Drawing on PubChem BioAssay (NCI), this text covers GI50 and TGI for 13 compounds.

The structures appear in SMILES notation. Where “and” joins values, the source holds several entries; their conditions need not be identical. Equal entries are not always repeated.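 Grown in 96-well plates, cells were treated for 48 hours with each compound at five concentrations. Insufficient inhibition: endpoint recorded as highest concentration tested. At the GI50, growth is halved. TGI: concentration producing complete growth inhibition.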

Holding throughout (assay): growth of human tumour cells (NCI), 48 h
In assay [1] the test system is ACHN renal.
Assay [2] deals with T-47D breast.
In assay [3] the test system is A498 renal.
The subject of assay [4] is IGROV1 ovarian.
Assay [5] relates to SK-MEL-2 melanoma.
Assay [6] concerns OVCAR-3 ovarian.
Assay [7] deals with TK-10 renal.
Assay [8] relates to UACC-257 melanoma.
The test system of assay [9] is SNB-19 CNS.
Assay [10] has as its system HS 578T breast.

As to `Cc1c(CN2CCN(C(=O)[C@H](C)O)CC2)sc2c(N3CCOCC3)nc(-c3cnc(N)nc3)nc12`, the GI50 is 0.203 µM and 0.145 µM in [1]; 14.5 nM and 26.9 nM in [2]; 54.2 nM and 28.3 nM in assay [3]; 0.0161 µM and 0.0511 µM in assay [4]; 513 nM and 198 nM in [5]; 202 nM and 182 nM in assay [6]. Moreover, the GI50 was 0.191 µM and 0.131 µM in assay [7]; 310 nM and 132 nM in [8]; 0.898 µM and 0.313 µM in [9]; 53.9 nM and 44.6 nM in assay [10]. In addition, the TGI was 0.332 µM and 0.175 µM in assay [2]; 0.242 µM and 0.15 µM in assay [3]; 0.265 µM and 0.377 µM in assay [4]; 4.72 µM and 1.8 µM in [5]; 5.4 µM and 2.18 µM in assay [6]; 3.51 µM and 0.825 µM in assay [7]. For the same compound, the TGI in assay [8] was 3.76 µM and 0.751 µM; in assay [9] it was > 10 µM and 6.16 µM; in assay [10], 0.541 µM and 0.352 µM.
In the case of `Fc1cccc(COc2ccc(Nc3ncnc4onc(-c5ccccc5)c34)cc2)c1`, the GI50 in assay [1] was 3.38 µM; in [2], 218 nM; in [3], 240 nM; in [4] it was 0.249 µM; in assay [5] it was 426 nM; in assay [6] it was 252 nM. Further, the GI50 in assay [7] was 1.21 µM; in [8], 37500 nM; in [9], 0.339 µM; in assay [10] it was 97.4 nM. Besides, the TGI was more than 100 µM in assay [1]; more than 100 µM in [2]; 3.18 µM in assay [3]; more than 100 µM in assay [4]; more than 100 µM in assay [5]; 2.19 µM in [6]. The TGI is 36.1 µM in assay [7], more than 100 µM in assay [8], more than 100 µM in assay [9] and 2.02 µM in assay [10].
Regarding `O=C(O)c1cccc(S(=O)(=O)NCCO)c1`, the TGI in assay [1], in assay [2], in [3], in [4], in assay [5] and in [6] was more than 100 µM throughout. Moreover, the TGI in assay [7], in assay [8], in [9] and in assay [10] was more than 100 µM each time.
Turning to `CC(=O)O.CN1[CH-]N(Cc2ccc(C#N)cc2)c2ccccc21.[Ag+]`, the GI50 is 16.3 µM in assay [1]; 14800 nM in assay [2]; more than 100000 nM in assay [3]; 20.9 µM in [4]; more than 100000 nM in [5]; 16600 nM in assay [6]. The GI50 in assay [7] is 18 µM; in assay [8], 14800 nM; in [9] it was 29.3 µM; in assay [10], more than 100000 nM. In addition, the TGI in assay [1] is 30.2 µM; in assay [2], 60.1 µM; in [3] it was more than 100 µM; in assay [4], 46.7 µM; in [5] it was more than 100 µM; in assay [6], 30.4 µM. Moreover, the TGI is 32 µM in [7], 29.7 µM in [8], more than 100 µM in assay [9] and more than 100 µM in assay [10].
`Cc1ccc(CNc2ccc3nc(CCC4CCCCC4)[nH]c3c2)cc1`: the GI50 is 3.09 µM in assay [1]; 2560 nM in assay [2]; 1440 nM in assay [3]; 2.28 µM in assay [4]; 2310 nM in [5]; 3060 nM in assay [6]. The GI50 in assay [7] was 2.87 µM; in [8] it was 2370 nM; in [9], 3.54 µM; in assay [10], 2160 nM. Further, the TGI in assay [1] worked out at 9.65 µM; in assay [2], 8.5 µM; in [3] it was 4.32 µM; in [4], 10.3 µM; in assay [5], 5.5 µM; in assay [6], 11.4 µM. The TGI in assay [7] was 10.4 µM; in [8] it was 6.44 µM; in assay [9] it was more than 100 µM; in [10], 7.06 µM.
On to `COc1ccc(Nc2nc(NCCNc3ccnc4cc(Cl)ccc34)nc(N3CCOCC3)n2)cc1`, for which the GI50 in assay [1] is 4.77 µM; in [2] it was 11600 nM; in assay [3], 272 nM; in [4] it was 8.43 µM; in [5] it was 2190 nM; in assay [6], 11500 nM. The GI50 in [7] was 7.64 µM; in assay [8], 1870 nM; in assay [9] it was 10.6 µM; in assay [10] it was 3910 nM. The TGI in assay [1] is 18.1 µM; in assay [2] it was 28 µM; in assay [3], 2.19 µM; in assay [4], 23.4 µM; in assay [5] it was 4.28 µM; in assay [6], 24.3 µM. The TGI worked out at 20.6 µM in assay [7], 3.61 µM in [8], 23.6 µM in [9] and 24.1 µM in assay [10].
For the compound `OC1CC2CCC(C1)N2CCCN1c2ccccc2Sc2ccc(Cl)cc21` (centres undefined), the TGI in [1] came out at 7.07 µM; in assay [2], 5.44 µM; in assay [3], 5.62 µM; in assay [4] it was 5.01 µM; in assay [5], 3.29 µM; in [6] it was 8.27 µM. Moreover, the TGI in assay [7] came out at 3.61 µM; in [8], 2.6 µM; in assay [9], 13.5 µM; in assay [10] it was 4.59 µM.
As for `COc1ccc2cc(-c3cnc4nonc4n3)ccc2c1`, the GI50 was 4.33 µM in assay [1]; 1990 nM in assay [2]; 1150 nM in assay [3]; 15.3 µM in [4]; 3660 nM in assay [5]; 982 nM in assay [6]. Also, the GI50 in assay [7] was 10.6 µM; in assay [8], 7890 nM; in assay [9] it was 4.37 µM; in assay [10], 1230 nM. Further, the TGI in [1] was more than 100 µM; in assay [2] it was more than 100 µM; in assay [3], 8.79 µM; in [4] it was more than 100 µM; in assay [5] it was more than 100 µM; in [6] it was 56.9 µM. For the same compound, the TGI in assay [7], in [8], in assay [9] and in [10] was more than 100 µM each time.
As to `COc1ccc(Br)cc1NC(=O)Nc1cccc2c1ccn2Cc1ccnc(N)c1`, the GI50 was 5.51 µM and 4.91 µM in assay [1]; 3300 nM and 3900 nM in assay [2]; 2410 nM and 4120 nM in [3]; 7.64 µM and 3.95 µM in assay [4]; 2780 nM and 3820 nM in [5]; 8980 nM and > 10000 nM in assay [6]. Further, the GI50 is 5.33 µM and 7.07 µM in assay [7]; 9810 nM and > 10000 nM in assay [8]; 13.6 µM and > 10 µM in assay [9]; 1840 nM and 3810 nM in assay [10]. Moreover, the TGI was 23.2 µM and > 10 µM in assay [1]; 18.4 µM and > 10 µM in assay [2]; 11.6 µM and > 10 µM in [3]; 44.2 µM and > 10 µM in assay [4]; 8.87 µM and > 10 µM in assay [5]; 23.6 µM and > 10 µM in [6]. The TGI is 16.6 µM and > 10 µM in [7]; 27.5 µM and > 10 µM in assay [8]; more than 85.7 µM in [9]; 16.2 µM and > 10 µM in [10].
Turning to `COc1cc2nc(Nc3cccc(Cl)c3)nc(N)c2cc1OC`, the GI50 in assay [1] was 11.4 µM; in assay [2], 5130 nM; in assay [3] it was 6570 nM; in assay [4], 11 µM; in [5], 8280 nM; in [6] it was 4120 nM. In addition, the GI50 in assay [7] was 14.2 µM; in [8], 2110 nM; in assay [9], 14.6 µM; in assay [10] it was 6050 nM. Moreover, the TGI in assay [1] is 23.8 µM; in [2], 24 µM; in [3] it was 20.1 µM; in assay [4], 25.4 µM; in assay [5], 28.5 µM; in assay [6] it was 12.6 µM. The TGI in assay [7] came out at 37.8 µM; in assay [8], 4.48 µM; in assay [9], 28 µM; in [10], 31.6 µM.
Regarding `CCOC(=O)c1[nH]c2cc(Cl)ccc2c1[C@@H](C(=O)NC(C)(C)C)N(CC)C(=O)CCCCC#Cc1cccc2c1CN(C1CCC(=O)NC1=O)C2=O` (some centres undefined), the GI50 in assay [1] was 1.42 µM; in assay [2] it was less than 10 nM; in [3] it was less than 10.4 nM; in assay [4] it was less than 0.0109 µM; in assay [5], 1470 nM; in assay [6] it was 1580 nM. Moreover, the GI50 in [7] is 2.65 µM; in assay [8], 3050 nM; in [9], 0.0731 µM; in assay [10], less than 10 nM. The TGI in assay [1] was 13.3 µM; in [2], 7.59 µM; in assay [3], 0.0723 µM; in [4], 11.1 µM; in [5], 4.15 µM; in assay [6], more than 38.9 µM. For the same compound, the TGI was 16.1 µM in assay [7], more than 87.5 µM in assay [8], 34.5 µM in assay [9] and 6.66 µM in assay [10].
In the case of `CCOC(=O)C(=Cc1ccc(C#N)cc1)C(=O)OCC`, the GI50 in assay [1] is 1.78 µM; in assay [2] it was 2150 nM; in assay [3], 7840 nM; in assay [4], 2.61 µM; in [5] it was 1930 nM; in assay [6], 2010 nM. For the same compound, the GI50 in [7] is 2.28 µM; in [8] it was 2410 nM; in assay [9], 2.66 µM; in [10], 4190 nM. Besides, the TGI in assay [1] was 3.46 µM; in assay [2], 7.96 µM; in assay [3] it was 20.1 µM; in [4] it was 7.96 µM; in assay [5], 4.19 µM; in assay [6], 4.39 µM. For the same compound, the TGI in assay [7] stood at 7.3 µM; in assay [8], 5.63 µM; in assay [9] it was 7.7 µM; in assay [10], 37.9 µM.
On to `COc1nc(N)nc2c1ncn2C1CC(O)C(CO)O1` (centres undefined), for which the TGI in assay [1], in [2], in assay [3], in [4], in assay [5] and in assay [6] was more than 100 µM in each case. Also, the TGI in [7], in assay [8], in assay [9] and in [10] was more than 100 µM in each case.
